How the values were obtained:
[1] = test system: Balb/C mice with spinal cord contusion lesion; test: Spinal cord contusion injury, locomotor recovery scored with the Basso Mouse Scale (BMS); assay type: in vivo
Text: In studies of spinal cord injury in mice, the recovery of the mice in the studies may be monitored and quantified using the Basso Mouse Scale (Basso D. M., et al., Journal of Neurotrauma, Volume 23, No. 5, 635-659 (2006), the entirety of which is hereby incorporated by reference). Using this method, each mouse in such studies may be awarded a score based on the criteria outlined in Table 1 and FIG. 1 of Basso et al., supra,
Spinal cord injury and cortical spinal tract (CST) tracing were performed as described in (Boato et al. 2010). […] A gelfoam patch containing 1 μM the compound of Example 1(i) was then placed on top of the perforated dura (only in the second experiment, see Example 3), the muscles were sutured and the back skin closed with wound clips. Recovery of function after SCI was determined by scoring the locomotor hindlimb performance in the open field with the BMS, a 0-9 rating system based on the BBB scale and specifically designed for the mouse (Basso D. M., et al., Journal of Neurotrauma, Volume 23, No. 5, 635-659 (2006)). Under blind conditions, investigator evaluated the mice over a 4-min time period daily. Before surgery, animals were acclimated to the open field and to handling to prevent fear and/or stress behaviours that could bias the locomotor assessment.

[2] = test system: CST nerve fibres of mice with spinal cord injury; test: Cortical spinal tract tracing (BDA-labelled nerve fibres) after spinal cord injury; assay type: in vivo, mouse; settings: FIG. 4
Description: To anterogradely label the CST, 2 μl of biotinylated dextran amine (10% BDA) were then injected into the motor cortex. BDA-positive CST nerve fibres were visualized by 3,3′-diaminobenzidine staining and counted cranial and caudal to the lesion in serial sections and normalized to the number of labelled fibres in the dorsoventral diameter of the CST in cross sections at T4.
The bars in FIG. 2 represent the percentage of nerve fibres in the area between the end of the CST and the lesion centre (TE-LC) and in the area 0.1, 0.2 or 0.5 mm distal to the lesion centre (0.1, 0.2 or 0.5 mm from LC).
The potential for administration of the compound of Example 1(i) to mice to lead to regeneration of axonal fibres and bridging of the site of injury by reinnervation, following spinal cord injury, was examined. This involved tracking motor neurons by injection of BDA-labelled dextran into the motor cortex.

BDNF [3] = test: BDNF mRNA expression by RT-qPCR in murine primary neurons; assay type: cell-based; settings: primary mouse neurons, FIG. 5a
Description: (§1) Primary neurons were isolated from brains of E15 mouse embryos.
(§2) Total RNA from cells was extracted using NucleoSpin RNA II extraction kit including DNAse treatment to digest genomic DNA (Macherey & Nagel, Düren, Germany).
(§3) RNA concentration was measured spectrophotometrically at a wavelength of 260 nm. Purity was assessed by the quotient 260/280 nm.
(§4) 250 ng of cell-derived mRNA were reverse transcribed into complementary DNA using moloney murine leukaemia virus (M-MLV) reverse transcriptase, 5× M-MLV buffer, deoxy-NTPs, random primers and RNasin (reagents from Promega, Mannheim, Germany) at 37° C. for 60 min. In order to control for genomic DNA contaminations, RNA was additionally transcribed in the absence of M-MLV reverse transcriptase (RT minus control).
(§5) To measure gene expression, the transcribed cDNA was amplified by quantitative real-time PCR (Stratagen MX Pro, Agilent Technologies Sales & Services GmbH & Co. KG, Waldbronn, Germany) in a final volume of 25 μl with the specific primers in commercial Power SYBR Green Master Mix (Applied Biosystems, Foster City, USA). Expression values were normalized against 18SrRNA expression.
(§6) All PCR primers were purchased from Operon Biotechnologies (Köln, Germany). […]

TrkB [4] = test: TrkB mRNA expression by RT-qPCR in murine primary neurons; assay type: cell-based; settings: primary mouse neurons, FIG. 5b
Description: as §1, §2, §3, §4, §5, §6

BDNF [5] = test: BDNF mRNA expression by RT-qPCR in murine primary astrocytes; assay type: cell-based; settings: primary mouse astrocytes, FIG. 6a
Description: as §2, §3, §4, §5, §6

TrkB [6] = test: TrkB mRNA expression by RT-qPCR in murine primary astrocytes; assay type: cell-based; settings: primary mouse astrocytes, FIG. 6b
Description: as §2, §3, §4, §5, §6

TrkB [7] = test: Immunohistochemical stainings of injured spinal cords for TrkB; assay type: in vivo, mouse; settings: 4 week treatment; area of injury and peri-lesional tissue; versus vehicle; FIG. 7
Text: Animal tissues were fixated by transcardial perfusion with normal saline followed by ice-cold 4% paraformaldehyde in 0.1 M phosphate-buffered saline. After perfusion, spinal cords were dissected and post-fixed overnight in the same fixative. The next day, the tissues were embedded in Jung-Tissue Freezing Medium (Leica Microsystems Nussloh, Germany) and cut longitudinally along the horizontal plane (40 μm thickness) into six series using a freezing microtome.
For immunostaining, samples were preincubated with 10% normal goat serum dissolved in PBS containing 0.5% Triton X-100 for 30 minutes at room temperature (RT). Incubation with primary antibody (Santa Cruz) was carried out overnight at 4° C. Following repeated washing steps with PBS, secondary antibodies (Jackson ImmunoResearch Laboratories) were applied for 2 hours at RT. After removal of unbound antibodies, sections were mounted.
For measurement of signal intensity six sections per animal containing the lesion center were analyzed. Micrographs were made in 15 rectangular boxes along the spinal cord covering the lesion and surrounding area. Using ImageJ software (NIH) pictures were converted into the 8-Bit greyscale and the signal intensity for each box was evaluated.

[8] = test system: viable neurons at the site of spinal cord injury; test: Histochemical stainings of injured spinal cords for Nissl (viable neurons); assay type: in vivo, mouse; settings: versus vehicle-treated animals; FIG. 8
Description: Animals were fixated as described above.
For staining of viable neurons the NeuroTrace® 500/525 green fluorescent Nissl stain (Invitrogen) was used. Briefly, after rehydration tissue slices were permeabilized in PBS containing 0.1% Triton X-100 for 10 minutes at room temperature. After washing NeuroTrace solution (100 fold diluted in PBS) was applied to the sections and incubated for 20 minutes at room temperature. After washing, samples were mounted for microscopy.
For measurement of signal intensity six sections per animal containing the lesion centre were analyzed. Micrographs were made in 15 rectangular boxes along the spinal cord covering the lesion and surrounding area. Using ImageJ software (NIH) pictures were converted into the 8-Bit grayscale and the signal intensity for each box was evaluated.

SMILES	Basso Mouse Scale score better than vehicle treated mice ([1]; Balb/C mice, treated once daily, versus vehicle, FIG. 1)	neurological deficits (Basso Mouse Score) compared to controls ([1]; Balb/C mice, treated once daily, day 2 and 3 and from day 9 until the end of the study, FIG. 1)	neurological outcome (BMS), difference between routes of administration ([1]; systemically (i.p.) versus gel placed at the site of injury, FIG. 2)	BMS subscore paw position of hindlimbs, recovery ([1]; versus vehicle treated mice, where almost completely absent, FIG. 3)	increase in BMS subscore paw position, statistical significance ([1]; versus vehicle, FIG. 3)	number of BDA-labelled axons (CST nerve fibres) compared to controls [2]	production of mRNA encoding BDNF (BDNF [3])	production of mRNA encoding TrkB (TrkB [4])	expression of BDNF (BDNF [5]; 10^−6M)	expression of TrkB (TrkB [6]; 10^−6M)	TrkB immunoreactivity (signal intensity) in spinal cord (TrkB [7])	Nissl positive cells (viable neurons) at the site of spinal cord injury [8]	effect of AT2R-antagonist on BDNF mRNA increase induced by the compound of Example 1(i) (BDNF [3]; combination with Example 1(i))	effect of AT2R-antagonist on TrkB mRNA increase induced by the compound of Example 1(i) (TrkB [4]; combination with Example 1(i))	effect of co-treatment with AT2R-antagonist on BDNF expression induced by the compound of Example 1(i) (BDNF [5]; co-treatment with Example 1(i))	effect of co-treatment with AT2R-antagonist on TrkB expression induced by the compound of Example 1(i) (TrkB [6]; co-treatment with Example 1(i))
CCCCOC(=O)NS(=O)(=O)c1sc(CC(C)C)cc1-c1ccc(Cn2ccnc2)cc1 [Example 1(i), N-Butyloxycarbonyl-3-(4-imidazol-1-ylmethylphenyl)-5-iso-butylthiophene-2-sulfonamide]	approximately 1.5 points	significantly reduced neurological deficits	no statistically significant difference	continuous recovery	statistically significant from day 7 until the end of the observational period	significantly increased	significantly increased	significantly increased	induced expression	induced expression	strongly increased	significant increase	–	–	–	–
Cc1cc(Cn2cnc3c2C[C@@H](C(=O)O)N(C(=O)C(c2ccccc2)c2ccccc2)C3)ccc1N(C)C [PD123319, reference compound]	–	–	–	–	–	–	–	–	–	–	–	–	completely blocked	completely blocked	abrogated	abrogated

— patent publication US8835471B2, “Use of angiotensin II agonists” (Vicore Pharma AB, priority 2010, dated 2014)
